Legend:
MDA-MB-435 = MDA-MB-435 (Breast Cancer), 48 hours, SRB
LOX IMVI = LOX IMVI (Melanoma), 48 hours, SRB
SN12C = SN12C (Renal Cancer), 48 hours, SRB
HS578T = HS578T (Breast Cancer), 48 hours, SRB
MDA-MB-468 = MDA-MB-468 (Breast Cancer), 48 hours, SRB
UACC-257 = UACC-257 (Melanoma), 48 hours, SRB
NCI-H522 = NCI-H522 (Non-Small Cell Lung Cancer), 48 hours, SRB
HL-60(TB) = HL-60(TB) (Leukemia), 48 hours, SRB
U251 = U251 (CNS Cancer), 48 hours, SRB
SNB-19 = SNB-19 (CNS Cancer), 48 hours, SRB
SR = SR (Leukemia), 48 hours, SRB
OVCAR-8 = OVCAR-8 (Ovarian Cancer), 48 hours, SRB
DU-145 = DU-145 (Prostate Cancer), 48 hours, SRB
SW-620 = SW-620 (Colon Cancer), 48 hours, SRB
NCI/ADR-RES = NCI/ADR-RES (Breast Cancer), 48 hours, SRB
M14 = M14 (Melanoma), 48 hours, SRB
HCT-116 = HCT-116 (Colon Cancer), 48 hours, SRB
MCF7 = MCF7 (Breast Cancer), 48 hours, SRB
BT-549 = BT-549 (Breast Cancer), 48 hours, SRB
SF-539 = SF-539 (CNS Cancer), 48 hours, SRB
NCI-H460 = NCI-H460 (Non-Small Cell Lung Cancer), 48 hours, SRB
SF-295 = SF-295 (CNS Cancer), 48 hours, SRB
UO-31 = UO-31 (Renal Cancer), 48 hours, SRB
COLO 205 = COLO 205 (Colon Cancer), 48 hours, SRB
T-47D = T-47D (Breast Cancer), 48 hours, SRB
MOLT-4 = MOLT-4 (Leukemia), 48 hours, SRB
HCT-15 = HCT-15 (Colon Cancer), 48 hours, SRB
786-0 = 786-0 (Renal Cancer), 48 hours, SRB
RXF 393 = RXF 393 (Renal Cancer), 48 hours, SRB
OVCAR-4 = OVCAR-4 (Ovarian Cancer), 48 hours, SRB
PC-3 = PC-3 (Prostate Cancer), 48 hours, SRB
HCC-2998 = HCC-2998 (Colon Cancer), 48 hours, SRB

CN(C)c1cccc2c(S(=O)(=O)NCCCCCCCCCCOc3ccc4c(c3)[N+]([O-])=C3C4=C[C@@]45NC(=O)C6(CCCN6C4=O)CC5C3(C)C)cccc12 (stereo partly drawn) [Dansyl Analogue]
GI50 (MDA-MB-435): 382 nM
TGI (MDA-MB-435): 1920 nM
CC50 (MDA-MB-435; read-out: LC50): 23100 nM
GI50 (LOX IMVI): 166 nM
TGI (LOX IMVI): 310 nM
CC50 (LOX IMVI; read-out: LC50): 579 nM
GI50 (SN12C): 401 nM
TGI (SN12C): 6810 nM
CC50 (SN12C; read-out: LC50): 31700 nM
GI50 (HS578T): 355 nM
TGI (HS578T): 36900 nM
CC50 (HS578T; read-out: LC50): > 100000 nM
GI50 (MDA-MB-468): 202 nM
TGI (MDA-MB-468): 436 nM
CC50 (MDA-MB-468; read-out: LC50): 941 nM
GI50 (UACC-257): 1020 nM
TGI (UACC-257): 2810 nM
CC50 (UACC-257; read-out: LC50): 7740 nM
GI50 (NCI-H522): 260 nM
TGI (NCI-H522): 857 nM
CC50 (NCI-H522; read-out: LC50): 8890 nM
GI50 (HL-60(TB)): 211 nM
TGI (HL-60(TB)): 1160 nM
CC50 (HL-60(TB); read-out: LC50): > 100000 nM
GI50 (U251): 175 nM
TGI (U251): 334 nM
CC50 (U251; read-out: LC50): 640 nM
GI50 (SNB-19): 359 nM
TGI (SNB-19): 1440 nM
CC50 (SNB-19; read-out: LC50): 4100 nM
GI50 (SR): 371 nM
TGI (SR): 1940 nM
CC50 (SR; read-out: LC50): 23700 nM
GI50 (OVCAR-8): 759 nM
TGI (OVCAR-8): 11000 nM
CC50 (OVCAR-8; read-out: LC50): > 100000 nM
GI50 (DU-145): 271 nM
TGI (DU-145): 706 nM
CC50 (DU-145; read-out: LC50): 2450 nM
GI50 (SW-620): 266 nM
GI50 (NCI/ADR-RES): 28200 nM
TGI (NCI/ADR-RES): >100000 nM
CC50 (NCI/ADR-RES; read-out: LC50): > 100000 nM
GI50 (M14): 423 nM
TGI (M14): 2030 nM
CC50 (M14; read-out: LC50): 13600 nM
GI50 (HCT-116): 349 nM
TGI (HCT-116): 1150 nM
CC50 (HCT-116; read-out: LC50): 5980 nM
GI50 (MCF7): 232 nM
TGI (MCF7): 724 nM
CC50 (MCF7; read-out: LC50): 2610 nM
GI50 (BT-549): 515 nM
TGI (BT-549): 6730 nM
CC50 (BT-549; read-out: LC50): > 100000 nM
GI50 (SF-539): 215 nM
TGI (SF-539): 545 nM
CC50 (SF-539; read-out: LC50): 1890 nM
GI50 (NCI-H460): 700 nM
TGI (NCI-H460): 1990 nM
CC50 (NCI-H460; read-out: LC50): 4640 nM
GI50 (SF-295): 1730 nM
TGI (SF-295): 4630 nM
CC50 (SF-295; read-out: LC50): 49400 nM
GI50 (UO-31): 480 nM
TGI (UO-31): 2080 nM
CC50 (UO-31; read-out: LC50): 6480 nM
GI50 (COLO 205): 328 nM
TGI (COLO 205): 1140 nM
CC50 (COLO 205; read-out: LC50): 3860 nM
GI50 (T-47D): 152 nM
TGI (T-47D): 572 nM
CC50 (T-47D; read-out: LC50): 3140 nM
GI50 (MOLT-4): 276 nM
CC50 (MOLT-4; read-out: LC50): > 100000 nM
GI50 (HCT-15): 484 nM
TGI (HCT-15): 1750 nM
CC50 (HCT-15; read-out: LC50): 4180 nM
GI50 (786-0): 325 nM
TGI (786-0): 1070 nM
CC50 (786-0; read-out: LC50): 5210 nM
GI50 (RXF 393): 611 nM
TGI (RXF 393): 5920 nM
CC50 (RXF 393; read-out: LC50): 44400 nM
GI50 (OVCAR-4): 348 nM
TGI (OVCAR-4): 7420 nM
CC50 (OVCAR-4; read-out: LC50): 32200 nM
GI50 (PC-3): 334 nM
TGI (PC-3): 1820 nM
CC50 (PC-3; read-out: LC50): 41700 nM
GI50 (HCC-2998): 946 nM
TGI (HCC-2998): 2320 nM
CC50 (HCC-2998; read-out: LC50): 5490 nM

From US20110105515A1, “TARGETING THE ONCOPROTEIN NUCLEOPHOSMIN” (President and Fellows of Harvard College, priority 2007, published 2011)
